Assay results published in publication PMC9181899, “Synthesis and Anticancer Properties of New 3-Methylidene-1-sulfonyl-2,3-dihydroquinolin-4(1H)-ones” (Molecules, 2022).

Key:
HL-60 cells [1] = test: Apoptosis by FITC-Annexin V and PI double-staining, flow cytometry; format: cell-based; conditions: 1.8 µM, 24 h
Description: Pro-apoptotic activity of 5a was also confirmed using FITC-Annexin V and PI double-staining, based on the loss of plasma membrane asymmetry (phosphatidylserine externalization), which is a marker of the earlier stages of apoptosis.
Apoptotic cell death was determined using FITC-Annexin V Apoptosis Detection Kit I (BD Bioscience, San Jose, CA, USA). Briefly, HL-60 cells were seeded in the 6-well plates (4.0 × 10^5 cells/well) in 2 mL of the culture medium and treated with […] for 24 h. Afterwards, the cells were collected by centrifugation (300× g, 5 min), washed with PBS, re-suspended in binding buffer and stained with FITC-conjugated annexin V and propidium iodide (PI) according to the manufacturer guidelines (15 min, at room temperature). The samples were analyzed by flow cytometry using CytoFLEX (Beckman Coulter, Inc., Brea, CA, USA). Data analysis was performed using Kaluza Analysis Software v2 (Beckman Coulter, Inc., Brea, CA, USA).

HL-60 cells [2] = test: Apoptosis by cleaved PARP (Asp214) staining, flow cytometry; format: cell-based; conditions: 1.8 µM, 24 h, Figure 3b
Description: (§1) To evaluate the anticancer potential of 5a, the ability of this compound to inhibit cell proliferation, induce apoptotic cell death, and generate DNA damage was examined by flow cytometry using the ‘Apoptosis, DNA Damage, and Cell Proliferation Kit’ (BD Bioscience). After 24 h treatment with 5a in increasing concentrations, HL-60 cells were exposed to bromodeoxyuridine (BrdU) for additional 8 h. Then, the cells were simultaneously stained with fluorochrome-labeled anti-BrdU, anti-cleaved PARP (Asp214) and anti-H2AX (pS139).
To check whether the cytotoxic effect of 5a was associated with the induction of apoptosis, the pro-apoptotic activity of this compound was investigated. Apoptosis regulation is triggered by the activation of caspases. Caspase-3, an effector caspase, cleaves a number of vital proteins, leading to cell death. The activity of caspase-3 was assessed by flow cytometry using fluorochrome-labeled antibodies recognizing 89 kDa-cleaved PARP fragments released from PARP by caspase-3 in the executive stage of apoptosis.
(§2) Cell proliferation, DNA damage, and apoptotic cell death were determined using Apoptosis, DNA Damage, and Cell Proliferation Kit (BD Bioscience, San Jose, CA, USA), according to the manufacturer protocol. Briefly, HL-60 cells were seeded in 6-well plates (4.0 × 10^5 cells/mL) in 2 mL of growth medium and treated with 5a for 24 h. Afterwards, the bromodeoxyuridine (BrdU, 10 µM) was added and the cells were incubated for additional 8 h. Next, the cells were collected by centrifugation (300× g, 5 min), counted, fixed, and permeabilized according to the manufacturer’s instructions. The cells were incubated with DNase (300 µg/mL in PBS) for 1 h at 37 °C and then simultaneously stained with fluorochrome-labeled anti-BrdU, H2AX (pS139), and cleaved PARP (Asp214) antibodies, for 20 min at room temperature. After washing, DNA staining with DAPI (1 µg/mL of the staining buffer) was performed, and the cells were analyzed by flow cytometry using CytoFLEX (Beckman Coulter, Inc., Brea, CA, USA).

HL-60 cells [3] = test: DNA damage by H2AX (pS139) staining, flow cytometry; format: cell-based, human; conditions: 24 h; for increase of phosphorylated H2AX level: vs control
Description: as §1
It is well documented that apoptosis induced by many anticancer drugs may be a consequence of DNA damage. Chemical genotoxins that target DNA can inhibit DNA replication, which leads to the collapse of replication forks and the formation of DNA double strand breaks (DSBs). The generation of DNA damage was evaluated using anti-H2AX (pS139) antibodies directed against the phosphorylated form of human H2AX protein at the pS139 residue that is considered to be a biomarker for DNA DSBs. The treatment of HL-60 cells with 5a increased the levels of phosphorylated H2AX by 4.7- and 7.8-fold (to 1.35 µM and 1.9 µM, respectively), indicating the dose-dependent genotoxic effect of the tested compound (Figure 4c).
as §2

## C=C1C(=O)c2ccccc2N(S(=O)(=O)c2ccccc2)C1CC (centres unmarked) [Compound 5a, 2-Ethyl-3-methylidene-1-(phenylsulfonyl)-2,3-dihydroquinolin-4(1H)-one]
HL-60 cells [1]
  early apoptotic cell fraction (Annexin V-positive): up to 13.9%
  late apoptotic cell fraction (Annexin V- and PI-positive): ≤ 13.7%
HL-60 cells [2]
  Q3: H2AX (pS139) and cleaved PARP negative cells (representative plot): 66.8%
  Q4: cleaved PARP positive, H2AX (pS139) negative cells (representative plot): 15.0%
HL-60 cells [3]; 1.35 µM
  increase of phosphorylated H2AX level: 4.7 fold
HL-60 cells [3]; 1.8 µM, Figure 3b
  Q1: H2AX (pS139) positive, cleaved PARP negative cells (representative plot): 5.0%
  Q2: H2AX (pS139) and cleaved PARP positive cells (representative plot): 13.2%
HL-60 cells [3]; 1.9 µM
  increase of phosphorylated H2AX level: 7.8 fold
